Experimental data reported in patent US20040248837A1, “Methods of treating pulmonary fibrotic disorders” (priority 2002, published 2004).

Experiments:
ITGβ6 = ITGβ6 (β6 integrin) gene transcription in lung tissue, RT-PCR; format: in vivo, C57BL/6 mice; settings: B6 mice, i.v., 24 hrs; Pam3Cys 25 μg, polyI:C 25 μg, LPS 5 μg, TOG 2 mg, R848 18 μg, ISS 20 μg
Protocol: Twenty μg ISS was injected intravenously (i.v.) into C57BL/6 mice. At 0 hours, 2 hours, 4 hours, 8 hours, 16 hours, and 24 hours after injection, mice were killed and total RNA was isolated from lung. Transcription levels of IGFβ6 (β6 integrin) was analyzed by reverse transcription-polymerase chain reaction (RT-PCR). TNFα, IDO (2,3-indoleaminedioxygenase) and TGFβ1 were used as controls. […] Transcription of the other subunit of ITGαvβ6 (or αvβ6 integrin), i.e., ITGαv, was also analyzed by RT-PCR.
The long-term effect of ISS on gene expression in lung tissue was investigated. Twenty μg ISS was injected i.v. into C57 BL/6 mice. At 0 days, 1 day, 2 days, 3 days, 4 days, and 5 days post injection, mice were killed and total RNA was isolated from lung tissue. Transcription levels were analyzed by RT-PCR. […] The suppression of TGF-β activity was observed indirectly by the induction of MMP-12 (elastase) gene. Under normal conditions, MMP-12 expression is suppressed by TGF-β. […] In contrast, no change in mRNA levels of MMP-9 (gelatinase) was observed.
The kinetics of suppression of gene expression by ISS was analyzed. […] The level of ITGαv mRNA dropped to 20% of the initial levels within 30 minutes after i.v. injection of ISS.
MyD88 is a component of the TLR signaling pathway. It was shown that down-regulation of ITGβ6 gene transcription by ISS in lung tissue is dependent on MyD88. ISS suppressed ITGβ6 gene transcription in normal control mice, but not in MyD88^−/− mice.
Suppression of ITGβ6 gene transcription in lung tissue by a variety of TLR ligands was examined. Six different TLR ligands (Pam3Cys, 25 μg; polyI:C, 25 μg; LPS, 5 μg; TOG, 2 mg; R848, 18 μg; and ISS, 20 μg) were individually injected i.v. into B6 mice. After 24 hrs, mice were sacrificed and total RNA was isolated form lung tissue, and the level of ITGβ6 gene transcription in lung tissue was analyzed by RT-PCR. Each TLR agonist inhibited ITGβ6 gene transcription in lung tissue.

[1] = test system: mice repetitively challenged with OVA; experiment: BAL eosinophil counts; format: in vivo, BALB/c mice; settings: pilot experiments
Protocol: (§1) Female BALB/c mice (16 mice/group) (The Jackson Laboratory, Bar Harbor, Me.) were used when they reached 8-10 wk of age. Mice were immunized s.c. on days 0, 7, 14, and 21 with 25 μg of OVA (OVA, grade V; Sigma) adsorbed to 1 mg of alum (Aldrich) in 200 μl normal saline. Intranasal OVA challenges (20 ng/50 μl in PBS) were administered on days 27, 29 and 31 under isoflurane (Vedco, Inc. St Joseph, Mo.) anesthesia. Intranasal OVA challenges were then repeated twice a week for 1, 3, or 6 months (see FIG. 1 for protocol). Age and sex matched control mice were sensitized but not challenged with OVA during the 1, 3, or 6 month study. Mice were sacrificed 24 hours after the final OVA challenge and bronchoalveolar lavage fluid and lungs were analyzed.
Throughout the Examples, therapeutic nucleic acids are referred to as “ISS.” ISS or diluent control was administered intraperitoneally (i.p.) starting 1 day before the first intranasal OVA challenge on day 26, and then continued every other week 1 day before intranasal challenges for 1, 3, or 6 months (see FIG. 1). All animal experimental protocols were approved by the University of California, San Diego Animal Subjects Committees. […]

[2] = test system: mice repetitively challenged with OVA; settings: previous studies in our laboratory; administered 1 day before OVA challenge; cited from earlier work
[3] = test system: mice repetitively challenged with OVA; experiment: Quantification of airway remodeling (pilot experiments); format: in vivo, BALB/c mice
Protocol: as §1
Different groups of mice (16 mice/group) were administered i.p. endotoxin-free (<1 ng/mg DNA) phosphorothioate ISS-ODN (5′-[…]-3′; SEQ ID NO:01) (Trilink, San Diego, Calif.) (100 μg in 100 μl of sterile, endotoxin-free PBS), M-ODN (5′-[…]-3′; SEQ ID NO:02) which lacks the CpG motif present in ISS, or diluent control starting 1 day before the first intranasal OVA challenge on day 27, and then continuing every other week 1 day before intranasal challenges for 1, 3, or 6 months. […]

[4] = test system: mice repetitively challenged with OVA; experiment: Airway responsiveness to MCh in vivo (Penh, whole body plethysmograph); parameters: species or system BALB/c mice; settings: pilot experiments
Protocol: as §1, with “analyzed. […]” for “analyzed.”
Airway responsiveness was assessed 24 hrs after the final OVA challenge (after 1, 3, or 6 months of repetitive OVA challenges), using a single chamber whole body plethysmograph obtained from Buxco (Troy, N.Y.), as previously described in this laboratory. […] The enhanced pause (Penh) correlates closely with pulmonary resistance measured by conventional two-chamber plethysmography in ventilated mice. […] The Penh values measured during each 3-min sequence were averaged and are expressed for each MCh concentration as the percentage of baseline Penh values following PBS exposure (Broide et al. supra).

Compound	ITGβ6 gene transcription in lung tissue (ITGβ6)	OVA induced eosinophilic inflammation [1]	OVA induced airway hyperreactivity [2]	features of airway remodeling [3]	OVA induced airway responsiveness [4]
Nc1nc2c(sc(=O)n2[C@@H]2O[C@H](CO)[C@@H](O)[C@H]2O)c(=O)[nH]1 [TOG, 7-thia-8-oxo-guanosine]	inhibited				
M-ODN: 5′-TGACTGTGAAGGTTGGAGATGA-3′ (SEQ ID NO:02), which lacks the CpG motif present in ISS (DNA, backbone and methylation of C not given here)		did not inhibit	not	did not inhibit	did not inhibit
polyI:C	inhibited				
tripalmitoyl-S-glyceryl cysteine [Pam3Cys]	inhibited				
